Reference: patent US7101878B1 (Agouron Pharmaceuticals, Inc., priority 1998, dated 2006)

Biological target: T1, mouse GnRH receptor (Mus musculus, UniProt Q01776)
T1 construct: expressed in transfected cells; host or cells: 293 cells
T1 sequence (Q01776 1-327): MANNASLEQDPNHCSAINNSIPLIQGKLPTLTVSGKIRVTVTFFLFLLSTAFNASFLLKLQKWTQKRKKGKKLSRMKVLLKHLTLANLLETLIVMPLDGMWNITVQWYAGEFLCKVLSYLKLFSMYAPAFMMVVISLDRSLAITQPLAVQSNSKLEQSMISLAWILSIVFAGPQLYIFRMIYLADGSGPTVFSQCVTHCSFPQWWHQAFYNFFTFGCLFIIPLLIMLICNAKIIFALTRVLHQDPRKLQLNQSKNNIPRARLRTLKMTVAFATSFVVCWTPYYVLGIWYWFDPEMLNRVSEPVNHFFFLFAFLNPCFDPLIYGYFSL
Assay: Radioligand binding, 125I-GnRH-A, 293 cells expressing mouse GnRH receptors
Conditions: for inhibition at 10 µM: read-out: % Inhib. @ 10 uM mGnRH; for remaining activity at 10 µM: 1 h, substrate remaining, 10 uM compound, closer to zero = closer to 100% inhibition, read-out: S%R 10 uM mGnRHR
Procedure, shortened: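 Bound label captured on 0.1% polyethyleneimine-treated GF/C filters, washed three times with PBS, counted. IC50 derived; identical set-up for every species.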

Row | SMILES | inhibition at 10 µM [%] | remaining activity at 10 µM [%]
1 | CCOC(CN(CCc1ccccc1)C(=O)c1ccc(Cc2cc3c(cc2C)C(C)(C)CCC3(C)C)o1)OCC [drawing 1296] | 66 | 
2 | COc1ccc(C(=O)CNC(=O)c2ccc(Cc3cc4c(cc3C)C(C)(C)CCC4(C)C)o2)cc1 [Compound 474] |  | 39
3 | Cc1cc2c(cc1Cc1ccc(C(=O)NC(C)(C)CNC(=O)C(F)(F)F)o1)C(C)(C)CCC2(C)C | 37 | 
4 | Cc1cc2c(cc1Cc1ccc(C(=O)N3CCN(C(=O)C(c4ccccc4)c4ccccc4)CC3)o1)C(C)(C)CCC2(C)C | 36 | 
5 | Cc1cc2c(cc1Cc1ccc(C(=O)N(C)CCCC34c5ccccc5[C@@H]5CCC53c3ccccc34)o1)C(C)(C)CCC2(C)C (some centres unmarked) | 14 | 
6 | Cc1cc2c(cc1Cc1ccc(C(=O)N3CCC(NC(=O)OC(C)(C)C)C3)o1)C(C)(C)CCC2(C)C (centres unmarked) [drawing 1544] | 82 | 
7 | Cc1cc2c(cc1Cc1ccc(C(=O)N(C)CC(O)CO)o1)C(C)(C)CCC2(C)C (centres unmarked) | 69 | 
8 | Cc1cc2c(cc1Cc1ccc(C(=O)NC3c4ccccc4-c4ccccc43)o1)C(C)(C)CCC2(C)C [Compound 570] |  | 48
9 | Cc1cc2c(cc1Cc1ccc(C(=O)N3CCC(NC(=O)OC(C)(C)C)C3)o1)C(C)(C)CCC2(C)C (centres unmarked) [Compound 652] |  | 19
10 | Cc1cc2c(cc1Cc1ccc(C(=O)NC3CCS(=O)(=O)C3)o1)C(C)(C)CCC2(C)C (centres unmarked) [Compound 626] |  | 10
11 | Cc1cc2c(cc1Cc1ccc(C(=O)NC3CCCCC3O)o1)C(C)(C)CCC2(C)C (centres unmarked) [drawing 1522] | 97 | 
12 | Cc1cc2c(cc1Cc1ccc(C(=O)NCCC(C)O)o1)C(C)(C)CCC2(C)C (centres unmarked) [Compound 671] |  | 12
13 | Cc1cnc(CNC(=O)c2ccc(Cc3cc4c(cc3C)C(C)(C)CCC4(C)C)o2)cn1 [Compound 525] |  | -9
14 | Cc1cc2c(cc1Cc1ccc(C(=O)N3CCC(O)CC3)o1)C(C)(C)CCC2(C)C [Compound 641] |  | 23
15 | CC(=O)N1CCN(C(=O)c2ccc(Cc3cc4c(cc3C)C(C)(C)CCC4(C)C)o2)CC1 [drawing 1424] | 71 | 
16 | CCN(CC)CCNC(=O)c1ccc(Cc2cc3c(cc2C)C(C)(C)CCC3(C)C)o1 [drawing 1506] | 94 | 
17 | Cc1cc2c(cc1Cc1ccc(C(=O)N[C@@H](C)C(O)c3ccccc3)o1)C(C)(C)CCC2(C)C (some centres unmarked) | 63 | 
18 | Cc1cc2c(cc1Cc1ccc(C(=O)N(Cc3ccccc3)[C@@H](C)c3ccccc3)o1)C(C)(C)CCC2(C)C [drawing 1542] | 46 | 
19 | CCC1CCCCN1C(=O)c1ccc(Cc2cc3c(cc2C)C(C)(C)CCC3(C)C)o1 (centres unmarked) | 100 | 
20 | Cc1cc2c(cc1Cc1ccc(C(=O)NCCCO)o1)C(C)(C)CCC2(C)C [drawing 1417] | 96 | 
21 | Cc1cc2c(cc1Cc1ccc(C(=O)NCc3nc4ccccc4[nH]3)o1)C(C)(C)CCC2(C)C [Compound 500] |  | -4
22 | Cc1cc2c(cc1Cc1ccc(C(=O)N3CCCC3CNc3ccccc3)o1)C(C)(C)CCC2(C)C (centres unmarked) | 53 | 
23 | Cc1cc2c(cc1Cc1ccc(C(=O)NC[C@@H](C)c3ccccc3)o1)C(C)(C)CCC2(C)C | 70 | 

Row | SMILES | inhibition at 10 µM [%] | remaining activity at 10 µM [%]
24 | Cc1cc2c(cc1Cc1ccc(C(=O)NCCCOC(C)C)o1)C(C)(C)CCC2(C)C [drawing 1487] | 93 | 
25 | CC(=O)N1CCCN(C(=O)c2ccc(Cc3cc4c(cc3C)C(C)(C)CCC4(C)C)o2)CC1 [drawing 1503] | 73 | 
26 | Cc1cc2c(cc1Cc1ccc(C(=O)NCCNc3cccc4ccccc34)o1)C(C)(C)CCC2(C)C [drawing 1449] | 56 | 
27 | Cc1cc2c(cc1Cc1ccc(C(=O)N(CCC(c3ccccc3)c3ccccc3)Cc3ccco3)o1)C(C)(C)CCC2(C)C [Compound 630] |  | 58
28 | Cc1cc2c(cc1Cc1ccc(C(=O)NC(C)(C)CO)o1)C(C)(C)CCC2(C)C [Compound 633] |  | 10
29 | Cc1cc2c(cc1Cc1ccc(C(=O)NCCC3OCCO3)o1)C(C)(C)CCC2(C)C [drawing 1591] | 104 | 
30 | Cc1cc2c(cc1Cc1ccc(C(=O)NCCCn3ccnc3)o1)C(C)(C)CCC2(C)C [Compound 468] |  | -10
31 | Cc1cc2c(cc1Cc1ccc(C(=O)N(Cc3ccoc3)C3CCN(Cc4ccccc4)C3)o1)C(C)(C)CCC2(C)C (centres unmarked) [drawing 1561] | 91 | 
32 | Cc1cc2c(cc1Cc1ccc(C(=O)NCCNc3cccc4ccccc34)o1)C(C)(C)CCC2(C)C [Compound 602] |  | 44
33 | Cc1cc2c(cc1Cc1ccc(C(=O)N(CCN(C)C)Cc3ccccc3)o1)C(C)(C)CCC2(C)C [Compound 708] |  | -4
34 | Cc1cc2c(cc1Cc1ccc(C(=O)N(CCc3ccccc3)Cc3ccoc3)o1)C(C)(C)CCC2(C)C [drawing 1557] | 61 | 
35 | CCN(CC)CCCC(C)NC(=O)c1ccc(Cc2cc3c(cc2C)C(C)(C)CCC3(C)C)o1 (centres unmarked) | 99 | 
36 | Cc1cc2c(cc1Cc1ccc(C(=O)NCCSCCO)o1)C(C)(C)CCC2(C)C [drawing 1498] | 101 | 
37 | CCN(CC)CCCNC(=O)c1ccc(Cc2cc3c(cc2C)C(C)(C)CCC3(C)C)o1 [Compound 707] |  | 0
38 | Cc1cc2c(cc1Cc1ccc(C(=O)N3CCN(C(C)c4ccccc4)CC3)o1)C(C)(C)CCC2(C)C (centres unmarked) | 91 | 
39 | Cc1cc2c(cc1Cc1ccc(C(=O)NCC3(O)CCCCC3)o1)C(C)(C)CCC2(C)C [Compound 571] |  | 36
40 | CNCCCNC(=O)c1ccc(Cc2cc3c(cc2C)C(C)(C)CCC3(C)C)o1 [Compound 498] |  | 58
41 | CNC(=O)c1ccc(Cc2cc3c(cc2C)C(C)(C)CCC3(C)C)o1 [drawing 1539] | 23 | 
42 | CSCCCNC(=O)c1ccc(Cc2cc3c(cc2C)C(C)(C)CCC3(C)C)o1 [drawing 1586] | 99 | 
43 | Cc1cc2c(cc1Cc1ccc(C(=O)N(Cc3cccnc3)Cc3cccc4ccccc34)o1)C(C)(C)CCC2(C)C | 79 | 
44 | Cc1cc2c(cc1Cc1ccc(C(=O)N(C)C3CCN(Cc4ccccc4)C3)o1)C(C)(C)CCC2(C)C (centres unmarked) | 98 | 
45 | COc1cc2c(cc1OC)CN(C(=O)c1ccc(Cc3cc4c(cc3C)C(C)(C)CCC4(C)C)o1)CC2 [drawing 1253] | 46 | 
46 | Cc1cc2c(cc1Cc1ccc(C(=O)N(Cc3cccnc3)Cc3ccco3)o1)C(C)(C)CCC2(C)C [Compound 665] |  | 12

Row | SMILES | inhibition at 10 µM [%] | remaining activity at 10 µM [%]
47 | CCCCN(C(=O)c1ccc(Cc2cc3c(cc2C)C(C)(C)CCC3(C)C)o1)C(C)c1ccccc1 (centres unmarked) [drawing 1275] | 65 | 
48 | Cc1cc2c(cc1Cc1ccc(C(=O)NC3CCc4ccccc43)o1)C(C)(C)CCC2(C)C (centres unmarked) [drawing 1375] | 57 | 
49 | Cc1cc2c(cc1Cc1ccc(C(=O)NCCCN3CCN(C)CC3)o1)C(C)(C)CCC2(C)C [Compound 475] |  | -3
50 | Cc1cc2c(cc1Cc1ccc(C(=O)N3CC(C)CC(C)C3)o1)C(C)(C)CCC2(C)C (centres unmarked) [Compound 579] |  | 10
51 | Cc1cc2c(cc1Cc1ccc(C(=O)NCCN3CCOCC3)o1)C(C)(C)CCC2(C)C [Compound 523] |  | -4
52 | Cc1cc2c(cc1Cc1ccc(C(=O)N3CCC(CNC(=O)C(F)(F)F)CC3)o1)C(C)(C)CCC2(C)C [Compound 698] |  | 59
53 | Cc1cc2c(cc1Cc1ccc(C(=O)N(CCCN(C)C)CCCN(C)C)o1)C(C)(C)CCC2(C)C [drawing 1254] | 71 | 
54 | Cc1cc2c(cc1Cc1ccc(C(=O)N3CCCCC3C[C@H]3CCCN3C)o1)C(C)(C)CCC2(C)C (some centres unmarked) | 28 | 
55 | Cc1cc2c(cc1Cc1ccc(C(=O)NC3CCCC3)o1)C(C)(C)CCC2(C)C | 73 | 
56 | Cc1cc2c(cc1Cc1ccc(C(=O)NCC(O)c3ccccc3)o1)C(C)(C)CCC2(C)C (centres unmarked) [drawing 1470] | 101 | 
57 | Cc1cc2c(cc1Cc1ccc(C(=O)N(Cc3ccc(C(C)C)cc3)Cc3cccnc3)o1)C(C)(C)CCC2(C)C [drawing 1474] | 76 | 
58 | Cc1cc2c(cc1Cc1ccc(C(=O)N(CCN3CCCC3)Cc3ccccc3)o1)C(C)(C)CCC2(C)C [drawing 1462] | 100 | 
59 | Cc1cc2c(cc1Cc1ccc(C(=O)N(CCC#N)Cc3ccco3)o1)C(C)(C)CCC2(C)C [drawing 1309] | 77 | 
60 | Cc1cc2c(cc1Cc1ccc(C(=O)NCc3cccc(NC(=O)NC(Cc4ccccc4)c4ccccc4)c3)o1)C(C)(C)CCC2(C)C (centres unmarked) [Compound 682] |  | 59
61 | COc1cc(OC)cc(N2CCN(C(=O)c3ccc(Cc4cc5c(cc4C)C(C)(C)CCC5(C)C)o3)CC2)c1 [Compound 647] |  | 35
62 | CCCOCCNC(=O)c1ccc(Cc2cc3c(cc2C)C(C)(C)CCC3(C)C)o1 [drawing 1590] | 103 | 
63 | Cc1cc2c(cc1Cc1ccc(C(=O)N(C)CCC=C3c4ccccc4CCc4ccccc43)o1)C(C)(C)CCC2(C)C [drawing 1472] | 58 | 
64 | Cc1cc2c(cc1Cc1ccc(C(=O)N(CCC#N)CCC#N)o1)C(C)(C)CCC2(C)C [drawing 1536] | 77 | 
65 | CCN1CC(N(CCC(C)CCCC(C)(C)O)C(=O)c2ccc(Cc3cc4c(cc3C)C(C)(C)CCC4(C)C)o2)CN1CC (centres unmarked) [drawing 1567] | 104 | 
66 | CCC(CO)NC(=O)c1ccc(Cc2cc3c(cc2C)C(C)(C)CCC3(C)C)o1 (centres unmarked) [drawing 1481] | 89 | 
67 | COc1ccc(CCN(CC(C)C)C(=O)c2ccc(Cc3cc4c(cc3C)C(C)(C)CCC4(C)C)o2)cc1OC | 90 | 
68 | CCCC(CO)NC(=O)c1ccc(Cc2cc3c(cc2C)C(C)(C)CCC3(C)C)o1 (centres unmarked) [drawing 1547] | 99 | 
